Consider 14 compounds from patent US12459931B2, “Benzothiophene derivative regulator, preparation method therefor and use thereof” (Shanghai Hansoh Biomedical Co., Ltd., priority 2019, dated 2025).

In test [1] the target is Human Dopamine D3 Receptor (Homo sapiens (Human), UniProt P35462). Nature of the test: Radioligand-receptor binding assay, dopamine D3 receptor ([3H]-methylspiperone). Particulars: [3H]-methylspiperone 0.5 nM, human D3 receptor membrane. The protocol: Determination of the Binding Ability of the Compounds of the Present Invention to Dopamine D3 Receptor
The objective of this test example is to determine the affinity of the compounds for dopamine D3 receptor.
Assay buffer: 50 mM Tris-HCl pH 7.4, 10 mM MgCl2; wash solution: 50 mM Tris-HCl pH 7.4, stored at 4° C.; 0.5% PEI solution: 0.5 g PEI dissolve in 100 mL ddH2O, 4° C. storage of spare.
(§1) 5 μL of the test compounds (0.005 nM to 100 nM, 10 concentrations in total) and 100 μL of buffer were added to a 96-well assay plate. 1 μL of cell membrane and 300 μL of buffer were added to each well, and the plate was shaken at 600 rpm for 5 min. A mixed solution of 100 μL of buffer and [^3H]-methylspiperone (the final concentration was 0.5 nM) was added to each well. The plate was shaken at 600 rpm for 5 min, and incubated at 27° C. for 30 min. The […]-96 GF/B filter plate pre-incubated with 0.5% PEI for 1 h was washed twice with the buffer (1 mL/well). The cell membrane suspension was added to the […]-96 GF/B filter plate, washed 4 times, and incubated at 55° C. for 10 min. 40 μL of ULTIMA GOLD was added to each well, and liquid scintillation counting was carried out.
(§2) The CPM (Counts per minute) values were determined by TopCount. […] The 10 concentrations of the compound were from 100 nM to 0.005 nM after 3-fold dilution of the reaction system. The percent inhibition rate and ten-point concentration data were fitted to the parametric nonlinear logistic equation by using GraphPad prism to calculate the IC50 values of the compound.

The target in another test is 5-HT2A receptor (Homo sapiens (Human), UniProt P28223). Nature of the test: Radioligand-receptor binding assay, 5-HT2A receptor ([3H]-Ketanserin). Conditions: [3H]-Ketanserin 2 nM, human 5-HT2A receptor membrane; read-out: 5HT-2A binding activity IC50. On the procedure: Determination of the Binding Ability of the Compounds of the Present Invention to 5-HT2A Receptor
The objective of this test example is to determine the affinity of the compounds for 5-HT2A receptor.
Assay buffer: 50 mM Tris-HCl pH 7.4, 4 mM CaCl2); wash solution: 50 mM Tris-HCl pH 7.4, stored at 4° C.; 0.5% PEI solution: 0.5 g PEI dissolve in 100 mL ddH2O, 4° C. storage of spare.
as §1, with “plate. 1.5” for “plate. 1”, “300 L” for “300 μL”, “each well. The” for “each well, and the”, “and [^3H]-Ketanserin” for “and [^3H]-methylspiperone”, “was 2” for “was 0.5”
as §2

Sequence of Human Dopamine D3 Receptor (P35462 whole entry): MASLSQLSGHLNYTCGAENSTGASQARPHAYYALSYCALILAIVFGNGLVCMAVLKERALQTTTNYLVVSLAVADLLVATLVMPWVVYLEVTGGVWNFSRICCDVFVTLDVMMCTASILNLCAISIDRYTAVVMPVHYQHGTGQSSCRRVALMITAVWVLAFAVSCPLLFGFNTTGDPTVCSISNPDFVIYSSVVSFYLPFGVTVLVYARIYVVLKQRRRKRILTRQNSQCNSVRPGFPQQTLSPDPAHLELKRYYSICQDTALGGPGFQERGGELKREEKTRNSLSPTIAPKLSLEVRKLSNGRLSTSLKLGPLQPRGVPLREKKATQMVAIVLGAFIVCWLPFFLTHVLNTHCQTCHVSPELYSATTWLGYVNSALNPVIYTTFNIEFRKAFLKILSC
Sequence of 5-HT2A receptor (P28223 whole entry): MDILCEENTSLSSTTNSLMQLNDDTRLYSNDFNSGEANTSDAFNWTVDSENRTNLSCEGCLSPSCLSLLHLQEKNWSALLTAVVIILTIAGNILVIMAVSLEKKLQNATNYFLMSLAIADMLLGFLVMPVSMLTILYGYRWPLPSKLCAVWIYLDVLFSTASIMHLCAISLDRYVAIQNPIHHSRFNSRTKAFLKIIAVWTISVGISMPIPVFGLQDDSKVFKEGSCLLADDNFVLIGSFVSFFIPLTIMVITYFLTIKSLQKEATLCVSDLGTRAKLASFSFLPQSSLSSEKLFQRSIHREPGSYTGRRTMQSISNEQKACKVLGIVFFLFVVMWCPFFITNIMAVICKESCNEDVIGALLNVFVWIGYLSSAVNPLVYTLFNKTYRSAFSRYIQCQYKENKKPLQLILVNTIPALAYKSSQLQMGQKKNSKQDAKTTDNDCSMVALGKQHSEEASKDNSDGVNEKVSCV

In the case of `O=C(N[C@H]1CC[C@H](CCN2CCN(c3cccc4sccc34)CC2)CC1)N1CC(F)(F)C1` [Example 2, N-(Trans-4-(2-(4-(benzo[b]thiophen-4-yl)piperazin-1-yl)ethyl)cyclohexyl)-3,3-difluoro azetidine-1-carboxamide], the IC50 in test [1] stood at 760 pM; on 5-HT2A receptor it was 3400 pM.

In test [1], `CC1(O)CN(C(=O)N[C@H]2CC[C@H](CCN3CCN(c4cccc5sccc45)CC3)CC2)C1` [Example 3, N-(Trans-4-(2-(4-(benzo[b]thiophen-4-yl)piperazin-1-yl)ethyl)cyclohexyl)-3-hydroxy-3-methylazetidine-1-carboxamide] returned an IC50 of 1590 pM.

As for `COC1(C)CN(C(=O)N[C@H]2CC[C@H](CCN3CCN(c4cccc5sccc45)CC3)CC2)C1` [Example 4, N-(Trans-4-(2-(4-(benzo[b]thiophen-4-yl)piperazin-1-yl)ethyl)cyclohexyl)-3-methoxy-3-methylazetidine-1-carboxamide], the IC50 in test [1] turned out to be 1520 pM; at 5-HT2A receptor it was 260 pM.

Consider `CN(C)C(=O)N[C@H]1CC[C@](F)(CCN2CCN(c3cccc4sccc34)CC2)CC1` [Example 15, 3-(Cis-4-(2-(4-(benzo[b]thiophen-4-yl)piperazin-1-yl)ethyl)-4-fluorocyclohexyl)-1,1-dimethylurea], for which, in test [1], the IC50 is 4250 pM.

Regarding `CCNC(=O)N[C@H]1CC[C@](F)(CCN2CCN(c3cccc4sccc34)CC2)CC1` [Example 16, 1-(Cis-4-(2-(4-(benzo[b]thiophen-4-yl)piperazin-1-yl)ethyl)-4-fluorocyclohexyl)-3-ethylurea], the IC50 in test [1] worked out at 570 pM; at 5-HT2A receptor it was 2070 pM.

Take `CN(C)C(=O)NC1CCC(CCN2CCN(c3cccc4sccc34)CC2)CC1F` (centres unmarked) [Example 23, 3-(4-(2-(4-(Benzo[b]thiophen-4-yl)piperazin-1-yl)ethyl)-2-fluorocyclohexyl)-1,1-dimethylurea]: the IC50 in test [1] was determined as 2690 pM; on 5-HT2A receptor, 6450 pM.

In the case of `C[C@@H]1CN(c2cccc3sccc23)CCN1CC[C@H]1CC[C@H](Nc2ncc(C#N)cn2)CC1` [Example 44, 2-((Trans-4-(2-((R)-4-(benzo[b]thiophen-4-yl)-2-methylpiperazin-1-yl)ethyl)cyclohexyl)amino)pyrimidine-5-carbonitrile], the IC50 in test [1] turned out to be 1580 pM; at 5-HT2A receptor it was 2590 pM.

In the case of `O=C(N[C@H]1CC[C@H](CCN2CCN(c3cccc4sccc34)CC2)CC1)c1ccco1` [Example 45, N-(Trans-4-(2-(4-(benzo[b]thiophen-4-yl)piperazin-1-yl)ethyl)cyclohexyl)furan-2-carboxamide], the results for the IC50 (in test [1]; on 5-HT2A receptor) were 120 pM and 630 pM, respectively.

On to `Cc1ccc(C(=O)N[C@H]2CC[C@H](CCN3CCN(c4cccc5sccc45)CC3)CC2)o1` [Example 46, N-(Trans-4-(2-(4-(benzo[b]thiophen-4-yl)piperazin-1-yl)ethyl)cyclohexyl)-5-methylfuran-2-carboxamide], for which the IC50 in test [1] turned out to be 600 pM; on 5-HT2A receptor, 910 pM.

With `COCC(=O)N[C@H]1CC[C@H](CCN2CCN(c3cccc4sccc34)CC2)CC1` [Example 47, N-(Trans-4-(2-(4-(benzo[b]thiophen-4-yl)piperazin-1-yl)ethyl)cyclohexyl)-2-methoxyacetamide], the IC50 in test [1] amounted to 470 pM; at 5-HT2A receptor, 960 pM.

On to `CC(C)(O)CC(=O)N[C@H]1CC[C@H](CCN2CCN(c3cccc4sccc34)CC2)CC1` [Example 48, N-(Trans-4-(2-(4-(benzo[b]thiophen-4-yl)piperazin-1-yl)ethyl)cyclohexyl)-3-hydroxy-3-methylbutanamide], for which the IC50 in test [1] was 360 pM; at 5-HT2A receptor, 830 pM.

As for `Fc1cnc(N[C@H]2CC[C@H](CCN3CCN(c4cccc5sccc45)CC3)CC2)nc1` [Example 49, N-(Trans-4-(2-(4-(benzo[b]thiophen-4-yl)piperazin-1-yl)ethyl)cyclohexyl)-5-fluoropyrimidin-2-amine], the IC50 in test [1] came to 2430 pM; on 5-HT2A receptor it was 340 pM.

Regarding `CON(C)C(=O)N[C@H]1CC[C@H](CCN2CCN(c3cccc4sccc34)CC2)CC1` [Example 50, 3-(Trans-4-(2-(4-(benzo[b]thiophen-4-yl)piperazin-1-yl)ethyl)cyclohexyl)-1-methoxy-1-methylurea], the IC50 came out at 1290 pM in test [1] and 2160 pM at 5-HT2A receptor.

Regarding `O=C(NC1CCC(CCN2CCN(c3cccc4sccc34)CC2)CC1F)c1ccco1` (centres unmarked) [Example 51, N-(4-(2-(4-(Benzo[b]thiophen-4-yl)piperazin-1-yl)ethyl)-2-fluorocyclohexyl)furan-2-carboxamide], the IC50 in test [1] amounted to 760 pM; at 5-HT2A receptor it was 900 pM.
